Test results reported in patent US20210113560A1, “METHOD OF TREATING FIBROTIC DISEASE” (BLADE THERAPEUTICS, INC., priority 2018, published 2021).
Peptide text beside a SMILES is read from it. * marks the point of attachment. Cbz = O=C(OCc1ccccc1)*

Target: T1, CAPN2 (Homo sapiens, UniProt P17655)
T1 sequence (P17655 20-700 limits assumed): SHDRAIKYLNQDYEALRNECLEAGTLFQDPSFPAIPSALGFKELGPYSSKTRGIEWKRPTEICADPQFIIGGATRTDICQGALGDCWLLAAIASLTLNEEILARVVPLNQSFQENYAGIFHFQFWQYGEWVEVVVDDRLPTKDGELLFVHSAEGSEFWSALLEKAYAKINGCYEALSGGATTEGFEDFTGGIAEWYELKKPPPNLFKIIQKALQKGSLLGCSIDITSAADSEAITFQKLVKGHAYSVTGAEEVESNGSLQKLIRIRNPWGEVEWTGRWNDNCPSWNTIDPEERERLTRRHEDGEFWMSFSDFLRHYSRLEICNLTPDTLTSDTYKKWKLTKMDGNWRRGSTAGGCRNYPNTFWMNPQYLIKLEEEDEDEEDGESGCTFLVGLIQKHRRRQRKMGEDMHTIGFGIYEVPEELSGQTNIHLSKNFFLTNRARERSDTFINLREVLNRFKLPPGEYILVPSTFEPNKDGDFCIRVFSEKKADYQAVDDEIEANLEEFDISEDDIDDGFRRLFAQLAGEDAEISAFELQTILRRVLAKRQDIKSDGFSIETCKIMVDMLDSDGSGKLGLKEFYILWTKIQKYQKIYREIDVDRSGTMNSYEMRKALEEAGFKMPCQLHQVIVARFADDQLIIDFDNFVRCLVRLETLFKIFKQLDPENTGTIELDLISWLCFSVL
T1 sequence (P04632 1-268 partner): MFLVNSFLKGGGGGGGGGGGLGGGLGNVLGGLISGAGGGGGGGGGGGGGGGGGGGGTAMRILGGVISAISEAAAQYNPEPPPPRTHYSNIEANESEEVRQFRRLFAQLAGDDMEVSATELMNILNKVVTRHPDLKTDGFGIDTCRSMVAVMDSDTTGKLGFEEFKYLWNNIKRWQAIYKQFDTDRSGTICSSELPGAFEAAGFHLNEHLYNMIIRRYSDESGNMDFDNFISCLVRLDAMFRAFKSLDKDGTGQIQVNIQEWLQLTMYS
Experiment: Activity based probe (ABP) off-rate assay of CAPN2 inhibitors, SDS-PAGE readout
Format: binding
Conditions: t1/2=0.693/k from first order decay fit; complex diluted ten-fold into 10 uM ABP; time points 0-24 hours
Description: FIG. 2: Dissociation of Compound 10 from calpain 2 (CAPN2). Complexes of Compound 10 with CAPN2 were generated, followed by dilution into an excess of Compound 29 (a probe for unbound CAPN2). Samples were taken at the time points (lanes 1-6 for 0, 1, 2, 4, 7 and 24 hr respectively) and analyzed by gel electrophoresis to determine the amount of Compound 29 probe incorporation. Lanes 7 and 8 reflect negative and positive controls for probe labeling, respectively. The dissociation rate and half-life for the Compound 10-CAPN2 complex was then calculated.
A fluorescently labeled irreversible activity based probe (ABP) was used to measure off rates of CAPN2 inhibitors as follows. The ABP molecule contains a fluoro-methyl ketone warhead that irreversibly reacts with the active site cysteine nucleophile of CAPN enzymes. ABP is also labeled with the Alexa 647 fluorophore which allows for sensitive quantitation of the CAPN2.ABP adduct.
The assay is typically performed by pre-incubating 2 uM CAPN2 with […] test inhibitor for 30 minutes in assay buffer (50 mM Tris-HCl, 100 mM NaCl, 2 mM CaCl2, 1 mM DTT, 0.02% Brij-35, pH7.4). This incubation mixture (containing the CAPN2.inhibitor complex) is diluted ten-fold into the same assay buffer containing 10 uM ABP. This is time zero at which an aliquot is immediately withdrawn and quenched by adding denaturing SDS-PAGE loading buffer and heating at 95° C. for 5 minutes. Additional aliquots are typically withdrawn and quenched at time points of 0.5, 1, 2, 4, 7, 24 hours. Quenched samples are stored frozen at −80° C. until SDS-PAGE analysis.
For a given test inhibitor, all time points are run on the same gel with the following two control samples. An assay minimum control is prepared by pre-incubating 2 uM CAPN2 in assay buffer for 1 hour. The incubation mixture is diluted, ten-fold into the same assay buffer containing 10 uM ABP, reacted for 30 minutes and quenched. After the initial 1 hour incubation, the CAPN2 enzyme is autolytically degraded and should generate little to no signal. An assay maximum control is prepared by adding 10 uM ABP to 0.2 uM CAPN2 in assay buffer and incubating for 30 minutes and quenching.
After SDS-PAGE, the gel is scanned using a LAS4000 ImageQuant platform to quantify the Alexa 647 intensity at ˜75 kDa (molecular weight of full length activated CAPN2). The minimum and maximum controls on each gel are used to calculate percentage of test compound bound at each time point. […] Using the equation t1/2=0.693/k, the off rate (k) is converted to and reported as CAPN2.inhibitor complex half-life (t1/2).

Half-life of Compound-CAPN2 Complex [h]	SMILES
0.383	O=C(NC1CC1)C(=O)C(Cc1ccccc1)NC(=O)c1nsnc1-c1ccccc1 (centres unmarked) [Compound 6]
1.87	O=C(O)C(=O)C(Cc1ccccc1)NC(=O)c1nsnc1-c1ccccc1 (centres unmarked) [Compound 33]
1.03	NC(=O)C(=O)C(Cc1ccccc1)NC(=O)c1nsnc1-c1cnccn1 (centres unmarked) [Compound 35]
1.27	NC(=O)C(=O)C(Cc1ccccc1)NC(=O)c1nsnc1-c1ccncn1 (centres unmarked) [Compound 34]
5.4	Cc1nc(-c2ccccc2)c(C(=O)NC(Cc2ccccc2)C(=O)C(N)=O)o1 (centres unmarked) [Compound 14]
2.8	NC(=O)C(=O)C(Cc1ccccc1)NC(=O)c1cn(C(F)F)nc1-c1cccc2cnccc12 (centres unmarked) [Compound 1]
9.63	NC(=O)C(=O)C(Cc1ccccc1)NC(=O)c1nsnc1-c1cccc2c1OC(F)(F)O2 (centres unmarked) [Compound 2]
2.7	Cc1cc(C(=O)N[C@@H](Cc2ccccc2)C(=O)C(N)=O)n(-c2ccccc2)n1 [Compound 21]
1.6	NC(=O)C(=O)[C@H](Cc1ccccc1)NC(=O)c1cnoc1-c1ccccc1 [Compound 25]
0.083	O=C(NC1CC1)C(=O)C(Cc1ccccc1)NC(=O)[C@H]1CCC(=O)N1Cc1ccccc1 (some centres unmarked) [Compound 9]
2.7	Cc1nc(-c2ccccc2F)c(C(=O)NC(Cc2ccccc2)C(=O)C(N)=O)o1 (centres unmarked) [Compound 10]
0.65	Cn1cc(C(=O)NC(Cc2ccccc2)C(=O)C(N)=O)c(-c2cccc3oc(=O)[nH]c23)n1 (centres unmarked) [Compound 38]
2.1	NC(=O)C(=O)C(Cc1ccccc1)NC(=O)c1cn(C(F)F)nc1-c1ccccc1 (centres unmarked) [Compound 17]
4.87	NC(=O)C(=O)C(Cc1ccccc1)NC(=O)c1nsnc1-c1cccc2c1OC(F)(F)O2 (centres unmarked) [Compound 31]
0.867	Cn1cc(C(=O)NC(Cc2ccccc2)C(=O)C(N)=O)c(-c2ccccc2F)n1 (centres unmarked) [Compound 16]
0.467	Cc1nc(-c2ccccc2F)c(C(=O)NC(Cc2ccccc2)C(=O)C(=O)O)o1 (centres unmarked) [Compound 40]
7	CC(C)[C@@H](NC(=O)CCCNC(=O)CCCCCC1(C)C(/C=C/C=C/C=C2/N(CCCS(=O)(=O)O)c3ccccc3C2(C)C)=[N+](CCCS(=O)(=O)O)c2ccc(S(=O)(=O)O)cc21)C(=O)NC(Cc1ccccc1)C(=O)CF (some centres unmarked) [Compound 29]
0.45	Cn1cc(C(=O)NC(Cc2ccccc2)C(=O)C(N)=O)c(-c2cccc3c2OC(F)(F)O3)n1 (centres unmarked) [Compound 41]

Half-life of Compound-CAPN2 Complex [h]	SMILES
0.467	Cc1cc(C(=O)NC(Cc2ccccc2)C(=O)C(N)=O)n(-c2ccccn2)n1 (centres unmarked) [Compound 5]
5.5	NC(=O)C(=O)C(Cc1ccccc1)NC(=O)c1nsnc1-c1ccccc1F (centres unmarked) [Compound 18]
0.633	Cn1cc(C(=O)NC(Cc2ccccc2)C(=O)C(N)=O)c(-c2cccc(F)c2)n1 (centres unmarked) [Compound 13]
0.333	NC(=O)C(=O)C(Cc1ccccc1)NC(=O)c1cn(C2CC2)nc1-c1ccccc1 (centres unmarked) [Compound 12]
0.533	Cc1cncc(-c2nn(C(F)F)cc2C(=O)NC(Cc2ccccc2)C(=O)C(N)=O)c1 (centres unmarked) [Compound 39]
0.9	CCN(CC)Cc1ccc(/C=C/c2ccccc2C(=O)NC(Cc2ccccc2)C(=O)C(N)=O)cc1 (centres unmarked) [Compound 27]
6.6	NC(=O)C(=O)C(Cc1ccccc1)NC(=O)c1nsnc1-c1ccccc1 (centres unmarked) [Compound 24]
0.483	Cn1cc(C(=O)N[C@@H](Cc2ccccc2)C(=O)C(N)=O)c(-c2ccccc2)n1 [Compound 26]
1	CC[C@H](NC(=O)[C@H](CC(C)C)NC(=O)OCc1ccccc1)C(=O)C(=O)NCc1cc(OC)cc(OC)c1 [Compound 23]
1.05	O=CC(Cc1ccccc1)NC(=O)c1nsnc1-c1ccccc1 (centres unmarked) [Compound 7]
0.65	Cn1cc(C(=O)NC(Cc2ccccc2)C(=O)C(N)=O)c(-c2cccc3cn[nH]c23)n1 (centres unmarked) [Compound 37]
2.8	NC(=O)C(=O)C(Cc1ccccc1)NC(=O)c1nsnc1-c1cccc(F)c1 (centres unmarked) [Compound 19]
0.75	Cc1c(F)cccc1-c1nsnc1C(=O)NC(Cc1ccccc1)C(=O)C(N)=O (centres unmarked) [Compound 36]
17.77	CC(C)C(NC(=O)OCc1ccccc1)C(=O)NC(Cc1ccccc1)C(=O)C(N)=O (centres unmarked) [Compound 30]
2.32	NC(=O)C(=O)C(Cc1ccccc1)NC(=O)c1nsnc1-c1ccccn1 (centres unmarked) [Compound 32]
2.4	NC(=O)C(=O)C(Cc1ccccc1)NC(=O)c1c(C(F)(F)F)ccc(Cl)c1F (centres unmarked) [Compound 8]
3.53	Cc1nc(-c2cccc(F)c2)c(C(=O)NC(Cc2ccccc2)C(=O)C(N)=O)o1 (centres unmarked) [Compound 11]

SMILES	Half-life of Compound-CAPN2 Complex [h]
CC(C)[C@H](NC(=O)OCc1ccccc1)C(=O)N[C@H](C=O)Cc1ccccc1 [Compound 28] (Cbz-Val-Phe-aldehyde)	3

Target: T2, CatK (Homo sapiens, UniProt P43235)
T2 sequence (P43235 115-329): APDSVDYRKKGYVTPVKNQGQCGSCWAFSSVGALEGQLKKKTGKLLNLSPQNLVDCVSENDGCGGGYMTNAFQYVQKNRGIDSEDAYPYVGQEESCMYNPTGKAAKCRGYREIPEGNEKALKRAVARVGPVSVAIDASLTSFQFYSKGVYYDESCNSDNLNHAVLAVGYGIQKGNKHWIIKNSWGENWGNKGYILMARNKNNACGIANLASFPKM
Experiment: Dilution of enzyme-inhibitor complex into substrate, reactivation over time (FIG. 1)
Format: biochemical
Conditions: compared to unbound CatK control
Description: (§1) FIG. 1: Dissociation of Compound 10 from calpain 2 (CAPN2). Complexes of Compound 10 with either CatK or CAPN2 were generated, followed by dilution into substrate-containing assay wells to initiate data collection. Reactivation of the target enzymes due to dissociation of the enzyme-inhibitor complexes was observed as a function of time. […] CAPN2 control (upper dashed line). Thus, inhibition of CAPN2 by Compound 10 is retained even in the absence of excess Compound 10. Further, this effect is selective and provides a basis for specific action of Compound 10 against CAPN2.

Reactivation of CatK after dilution of the CatK-compound complex	SMILES
almost an immediate reactivation	Cc1nc(-c2ccccc2F)c(C(=O)NC(Cc2ccccc2)C(=O)C(N)=O)o1 (centres unmarked) [Compound 10]

Target: T3, calpain 2 (CAPN2) (Homo sapiens, UniProt P17655)
T3 sequence (P17655 20-700 limits assumed): T1 sequence (P17655 20-700 limits assumed)
T3 sequence (P04632 1-268 partner): T1 sequence (P04632 1-268 partner)
Experiment: as above
Format: biochemical
Conditions: relative to unbound CAPN2 control; absence of excess compound
Description: as §1

Retention of CAPN2 inhibition after dilution of the complex	SMILES
inhibition is retained	Cc1nc(-c2ccccc2F)c(C(=O)NC(Cc2ccccc2)C(=O)C(N)=O)o1 (centres unmarked) [Compound 10]
